In one data set the test system is MT-2 human T-cells. Description: General cytotoxicity in MT-2 cells in the absence of virus.
For data set [1], the system named is wild-type IIIB strain of HIV-1 in MT-2 human T-cells. Kind of data set: Antiviral activity against HIV-1. The class given is cell-based. The note with it: HIV-1 IIIB, MT-2 cells, multiplicity of infection 0.1; activity above background.

pIC50: −log10 of the molar value.

For the compound `O=C1Nc2ccc(Cl)cc2[C@@](C#CC2CC2)(C(F)(F)F)O1` [Efavirenz, reference compound], the “general cytotoxicity (in words)” value with MT-2 human T-cells (same (low nanomolar) range of concentrations) was “no general cytotoxicity”.

Turning to `C[C@H]1CCCC[C@H]2C(=O)C=C[C@H](O)[C@@H]2CC(=O)O1` [Sch-642305], the “protection of cells from cell death due to viral killing” value in data set [1] is listed as “below 50%”. Besides, in the data set on MT-2 human T-cells (read-out: IC50 (general cytotoxicity), absence of virus, concentration at which 50 % of the cells are killed), the pIC50 is 6.12.

These data come from article PMC3811095 (Chemical science (Royal Society of Chemistry : 2010), 2011).
